Key:
Rat NHE3 = target: T1, Rat NHE3 (Rattus norvegicus, UniProt P26433); test: Cell-based NHE3 activity under prompt conditions (OK cells, BCECF pH recovery), rat NHE3; conditions: prompt conditions; for IC50: read-out: Prompt Rat NHE3 pIC50 (converted)
T1 construct: expressed in transfected cells; host or cells: Opossum kidney (OK) cells (ATCC), electroporation
Summary of the method: (§1)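 OK cells electroporated with rat or human NHE3 gene, loaded 30 min at room temperature with 5 μM BCECF-AM in NH4Cl-HEPES pH 7.4.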

[1] = test system: phosphorus and calcium levels in the urine of rats; test: Urinary excretion of phosphate and calcium in rats (16 h overnight urine); type: in vivo, rat; conditions: rats, oral gavage, 16 h post-dose
Human NHE3 = target: T2, Human NHE3 (Homo sapiens, UniProt P48764); test: Cell-based NHE3 activity under prompt conditions (OK cells, BCECF pH recovery), human NHE3; conditions: prompt conditions
T2 construct: expressed in transfected cells; host or cells: Opossum kidney (OK) cells (ATCC), electroporation
T2 sequence (P48764 26-834): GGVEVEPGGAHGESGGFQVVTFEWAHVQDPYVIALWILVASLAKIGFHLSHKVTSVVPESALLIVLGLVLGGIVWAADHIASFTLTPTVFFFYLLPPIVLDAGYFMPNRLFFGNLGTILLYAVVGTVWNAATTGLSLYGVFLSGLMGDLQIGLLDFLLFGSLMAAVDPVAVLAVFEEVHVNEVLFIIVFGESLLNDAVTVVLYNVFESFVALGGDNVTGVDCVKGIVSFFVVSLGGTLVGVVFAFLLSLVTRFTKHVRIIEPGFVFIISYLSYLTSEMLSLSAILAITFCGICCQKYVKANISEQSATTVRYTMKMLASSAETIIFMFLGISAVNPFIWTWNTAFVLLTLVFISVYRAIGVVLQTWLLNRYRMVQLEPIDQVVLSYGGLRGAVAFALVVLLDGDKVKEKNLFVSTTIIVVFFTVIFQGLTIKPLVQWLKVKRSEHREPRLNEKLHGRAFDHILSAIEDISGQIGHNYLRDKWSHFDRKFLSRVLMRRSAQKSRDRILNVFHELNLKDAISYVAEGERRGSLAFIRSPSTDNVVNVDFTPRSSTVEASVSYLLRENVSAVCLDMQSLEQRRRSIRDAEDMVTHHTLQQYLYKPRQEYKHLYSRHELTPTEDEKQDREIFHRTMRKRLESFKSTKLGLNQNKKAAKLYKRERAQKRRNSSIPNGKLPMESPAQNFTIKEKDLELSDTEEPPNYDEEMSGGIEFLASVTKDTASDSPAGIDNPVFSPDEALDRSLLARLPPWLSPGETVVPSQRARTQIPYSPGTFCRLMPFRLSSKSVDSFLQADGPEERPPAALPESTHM
Summary of the method: as §1

[2] = test system: absorption of sodium from the intestinal lumen; test: Inhibition of intestinal sodium absorption: urinary sodium (uNa) 16 h after single oral dose in rats; type: in vivo, rat; conditions: oral gavage, 16 h post-dose
Summary of the method: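 Eight-week-old Sprague-Dawley rats (n=6) given single oral gavage of compound or water vehicle in the late afternoon, then kept in metabolic cages with chow and water ad libitum. Urine collected over 16 h; sodium quantified by ion chromatography and expressed as % of vehicle mean, compared by one-way ANOVA with Dunnett's test.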

[3] = test system: absorption of sodium from the intestinal lumen; test: Fecal form score (FFS) 16 h after oral dose in rats; type: in vivo, rat; conditions: oral gavage, 16 h post-dose, scale 1-5
Summary of the method: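 Eight-week-old Sprague-Dawley rats (n=6) dosed by oral gavage with compound or water vehicle between 4 and 5 PM, then housed in metabolic cages with food and water ad libitum. At 16 h, fecal form scored 1 (normal pellet) to 5 (liquid streams) by two observers; group mean reported.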

T1 sequence (P26433 29-831): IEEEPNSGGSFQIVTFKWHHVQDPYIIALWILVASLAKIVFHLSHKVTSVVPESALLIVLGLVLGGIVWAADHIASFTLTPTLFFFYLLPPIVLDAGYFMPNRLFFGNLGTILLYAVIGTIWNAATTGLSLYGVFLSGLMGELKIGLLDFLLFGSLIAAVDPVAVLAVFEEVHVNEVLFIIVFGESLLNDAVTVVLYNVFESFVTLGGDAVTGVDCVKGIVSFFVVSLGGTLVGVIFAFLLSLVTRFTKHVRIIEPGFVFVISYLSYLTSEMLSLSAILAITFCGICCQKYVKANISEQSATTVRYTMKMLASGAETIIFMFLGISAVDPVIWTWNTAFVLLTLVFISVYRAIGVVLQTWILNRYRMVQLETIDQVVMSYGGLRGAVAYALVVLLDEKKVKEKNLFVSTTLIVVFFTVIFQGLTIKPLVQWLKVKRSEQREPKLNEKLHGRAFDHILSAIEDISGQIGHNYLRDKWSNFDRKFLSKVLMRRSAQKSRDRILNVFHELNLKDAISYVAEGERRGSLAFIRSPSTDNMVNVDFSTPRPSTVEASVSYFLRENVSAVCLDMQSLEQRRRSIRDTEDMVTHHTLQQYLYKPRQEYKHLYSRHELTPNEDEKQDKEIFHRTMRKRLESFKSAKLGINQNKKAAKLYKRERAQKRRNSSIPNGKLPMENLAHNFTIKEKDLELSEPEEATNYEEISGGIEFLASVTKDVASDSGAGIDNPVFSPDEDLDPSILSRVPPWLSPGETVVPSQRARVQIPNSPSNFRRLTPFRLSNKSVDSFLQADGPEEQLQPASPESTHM

Prompt Rat NHE3 pIC50 (Rat NHE3)	Prompt Human NHE3 pIC50 (Human NHE3)	SMILES	Urine P % of control ([1]; dose 10 mg/kg) [%]	Urine Na % of control ([2]; dose 10 mg/kg) [%]	Fecal Form Score average ([3]; dose 10 mg/kg)	Urine P % of control ([1]; dose 3 mg/kg) [%]	Urine Na % of control ([2]; dose 3 mg/kg) [%]	Fecal Form Score average ([3]; dose 3 mg/kg)	also measured
7.30	6.60	CN1Cc2c(Cl)cc(Cl)cc2[C@H](c2cccc(S(=O)(=O)NCCOCCOCCNC(=O)CCC(CCCNC(=O)NCCOCCOCCNS(=O)(=O)c3cccc([C@@H]4CN(C)Cc5c(Cl)cc(Cl)cc54)c3)(CCC(=O)NCCOCCOCCNS(=O)(=O)c3cccc([C@@H]4CN(C)Cc5c(Cl)cc(Cl)cc54)c3)NC(=O)NCP(=O)(O)O)c2)C1 [compound 162]							Urine P % of control ([1]; dose 2 mg/kg): 50%; Urine Na % of control ([2]; dose 2 mg/kg): 130%; Fecal Form Score average ([3]; dose 2 mg/kg): 2
8.00	8.30	N=C(N)Nc1nc(-c2ccc(OCCOCCOCCOCCNC(=O)NCCOCCOCCNC(=O)CN(CCN(CC(=O)O)CC(=O)NCCOCCOCCNC(=O)NCCOCCOCCOCCOc3ccc(-c4nc(NC(=N)N)nc5ccc(Cl)cc45)cc3)CC(=O)O)cc2)c2cc(Cl)ccc2n1 [compound 35]	57	65	1				
<5.00	8.20	O=C(NCCCCNC(=O)NCCOCCOCCNS(=O)(=O)c1ccc(O[C@H]2c3cc(Cl)cc(Cl)c3C[C@@H]2N2CC[C@@H](O)C2)cc1)NCCOCCOCCNS(=O)(=O)c1ccc(O[C@H]2c3cc(Cl)cc(Cl)c3C[C@@H]2N2CC[C@@H](O)C2)cc1 [compound 87]				29	54	1	
7.00	7.67	CN1Cc2c(Cl)cc(Cl)cc2[C@H](c2cccc(S(=O)(=O)NCCOCCOCCNC(=O)NCCCC(N)(CCCNC(=O)NCCOCCOCCNS(=O)(=O)c3cccc([C@@H]4CN(C)Cc5c(Cl)cc(Cl)cc54)c3)CCCNC(=O)NCCOCCOCCNS(=O)(=O)c3cccc([C@@H]4CN(C)Cc5c(Cl)cc(Cl)cc54)c3)c2)C1 [compound 147]				32	40	2	
7.50	7.70	C/C(=C\c1cc(F)c(Oc2ccc(S(=O)(=O)NCCOCCOCCOCCNC(=O)OCCOCCOCCOC(=O)NCCOCCOCCOCCNS(=O)(=O)c3ccc(Oc4c(F)cc(/C=C(\C)C(=O)N=C(N)N)cc4F)cc3)cc2)c(F)c1)C(=O)N=C(N)N [compound 26]	77	78	1				
5.30	6.30	CN1Cc2c(Cl)cc(Cl)cc2[C@H](c2cccc(S(=O)(=O)NCCOCCOCCOCCn3cc(CN(Cc4cn(CCOCCOCCOCCNS(=O)(=O)c5cccc([C@@H]6CN(C)Cc7c(Cl)cc(Cl)cc76)c5)nn4)Cc4cnnn4CCOCCOCCOCCNS(=O)(=O)c4cccc([C@@H]5CN(C)Cc6c(Cl)cc(Cl)cc65)c4)nn3)c2)C1 [compound 73]	49	74	2				
7.65	7.40	O=C(O)CN(CCN(CC(=O)O)CC(=O)NCCOCCOCCOCCNS(=O)(=O)c1ccc(OC2c3ccccc3CC2N2CCCCC2)cc1)CC(=O)NCCOCCOCCOCCNS(=O)(=O)c1ccc(OC2c3ccccc3CC2N2CCCCC2)cc1 (stereo not drawn) [compound 49]	77	38	1				
6.30	7.30	CN1Cc2c(Cl)cc(Cl)cc2[C@H](c2cccc(S(=O)(=O)NCCOCCOCCOCCNC(=O)CN3CCN(CC(=O)NCCOCCOCCOCCNS(=O)(=O)c4cccc([C@@H]5CN(C)Cc6c(Cl)cc(Cl)cc65)c4)CCN(CC(=O)NCCOCCOCCOCCNS(=O)(=O)c4cccc([C@@H]5CN(C)Cc6c(Cl)cc(Cl)cc65)c4)CCN(CC(=O)NCCOCCOCCOCCNS(=O)(=O)c4cccc([C@@H]5CN(C)Cc6c(Cl)cc(Cl)cc65)c4)CC3)c2)C1 [compound 58]	68	82	1				
7.50	7.70	CN(CC(=O)NCCOCCOCCNC(=O)NCCOCCOCCOCCOc1cccc(-c2nc(NC(=N)N)nc3ccc(Cl)cc23)c1)CC(=O)NCCOCCOCCNC(=O)NCCOCCOCCOCCOc1cccc(-c2nc(NC(=N)N)nc3ccc(Cl)cc23)c1 [compound 43]	101	70	1				
8.20	7.10	CN1Cc2c(Cl)cc(Cl)cc2[C@H](c2cccc(S(=O)(=O)NCCOCCOCCNC(=O)NCCC(CCNC(=O)NCCOCCOCCNS(=O)(=O)c3cccc([C@@H]4CN(C)Cc5c(Cl)cc(Cl)cc54)c3)(CCNC(=O)NCCOCCOCCNS(=O)(=O)c3cccc([C@@H]4CN(C)Cc5c(Cl)cc(Cl)cc54)c3)NC(=O)COCC(=O)O)c2)C1 [compound 172]				42	26	2	
		O=C(O)CN(CCN(CC(=O)O)CC(=O)NCCOCCOCCNS(=O)(=O)c1ccc(O[C@H]2c3ccccc3C[C@@H]2N2CCCCC2)cc1)CC(=O)NCCOCCOCCNS(=O)(=O)c1ccc(O[C@H]2c3ccccc3C[C@@H]2N2CCCCC2)cc1 (racemic) [compound 48]	55	68	1				IC50 (Rat NHE3): 28.2 nM; IC50 (Human NHE3; read-out: Prompt Human NHE3 pIC50 (converted)): 79.4 nM
6.90	6.40	N=C(N)Nc1nc(-c2ccc(S(=O)(=O)NCCOCCOCCN)cc2)c2cc(Cl)ccc2n1 [compound 8]	101	73	1				Urine P % of control ([1]; dose 30 mg/kg): 114%; Urine Na % of control ([2]; dose 30 mg/kg): 31%; Fecal Form Score average ([3]; dose 30 mg/kg): 2
	7.20	CN1Cc2c(Cl)cc(Cl)cc2[C@H](c2cccc(S(=O)(=O)NCCOCCOCCNCCCC(CCC(=O)NCCOCCOCCNS(=O)(=O)c3cccc([C@@H]4CN(C)Cc5c(Cl)cc(Cl)cc54)c3)(CCC(=O)NCCOCCOCCNS(=O)(=O)c3cccc([C@@H]4CN(C)Cc5c(Cl)cc(Cl)cc54)c3)NC(=O)N3CCN(CCOCCO)CC3)c2)C1 [compound 170]				34	31	2	IC50 (Rat NHE3): 79.4 nM
6.30	7.20	N=C(N)Nc1nc(-c2cccc(S(=O)(=O)NCCOCCOCCN)c2)c2cc(Cl)ccc2n1 [compound 7]	90	76	1				
6.50	6.50	CN1Cc2c(Cl)cc(Cl)cc2[C@H](c2cccc(S(=O)(=O)N(C)CCOCCOCCNC(=O)CCN(CCC(=O)NCCOCCOCCN(C)S(=O)(=O)c3cccc([C@@H]4CN(C)Cc5c(Cl)cc(Cl)cc54)c3)CCC(=O)NCCOCCOCCN(C)S(=O)(=O)c3cccc([C@@H]4CN(C)Cc5c(Cl)cc(Cl)cc54)c3)c2)C1 [compound 134]				72	64	1	

From patent US20240366589A1, “NHE3-BINDING COMPOUNDS AND METHODS FOR INHIBITING PHOSPHATE TRANSPORT” (Ardelyx, Inc., priority 2013, published 2024)
